Values of other authors in patent US20210324434A1, “METHOD FOR PRODUCING RARE SUGAR-CONTAINING COMPOSITION AND RARE SUGAR-CONTAINING COMPOSITION” (NATIONAL UNIVERSITY CORPORATION KAGAWA UNIVERSITY, priority 2018, published 2021).

Columns and labels:
[1] = relative to sugar
[2] = already known

Structure (SMILES) | sweetness intensity, % of that of sugar [1] | result of an acute oral toxicity test [2]
O=C[C@H](O)[C@@H](O)[C@H](O)[C@H](O)CO [D-glucose] | about 70% | –
O=C(CO)[C@@H](O)[C@H](O)[C@H](O)CO [D-fructose] | about 170% | –
O=C(CO)[C@H](O)[C@H](O)[C@H](O)CO [D-psicose] | about 70% | ≥ 5,000 mg/kg
